Source: patent publication US8486916B2, “Medicine, food and drink or feed containing sphingomyelin” (Megmilk Snow Brand Co., Ltd., priority 2005, dated 2013)
Like-named read-outs stand apart in the source and are kept apart here.

How the values were obtained:
[1] = system: SD rats; experiment: Water maze experiment (learning ability); type: in vivo; conditions: 2.0% in feed for 10 days
Experimental: The sphingomyelin raw material obtained in Example 1 was used to conduct a water maze experiment for the purpose of examining the influence of orally taken sphingomyelin on learned behavior. […] First, 8-week-old male SD rats (Charles River Laboratories, Japan) were preliminarily raised for 7 days using a standard diet (AIN-93G) and then divided into 3 groups each containing 6 individuals. In this context, the rats were raised under conditions involving room temperature of 24° C., humidity of 60%, and light-dark (12 hour/12 hour) control and were allowed to freely take deionized water. [table] Subsequently, a “water filled multiple T-maze” was prepared by arranging combined T-mazes with 11 choice points in a water tank of 120 cm long, 120 cm wide, and 40 cm deep. A water maze experiment was conducted at a water temperature of 23 to 24° C. according to the method of Ishizaki (Ishizaki, Exp. Anim., vol. 27, pp. 9-12, 1978). First, the rats were separately acclimatized by 5 trials in a straight waterway a day before the test. Next, each rat was given 3 trials in the water maze for 4 consecutive days of the test. The length of time taken to swim from the start to the goal of the water maze was measured.

[2] = system: cholera toxin; conditions: in vivo
[3] = system: phototoxic pigmentation caused by treatment with 8MOP; type: in vivo, female ICR mice; conditions: for depigmentation / pigmentation grade (Table 12: +3 whitened to −3 evidently blackened): 5% sample, 50 μl once daily
Description: An anti-pigmentation effect and the degree of pigmentation (shown in Table 12) produced as a side effect were rated by four-grade evaluation (+: depigmentation effect, −: side effect). […] Moreover, no agent was applied to a control group. […] [table]

[4] = system: Chinese hamster lung fibroblast cell line V79; type: cell-based
Experimental: The antioxidative activity of sphingomyelin was measured according to the method of Nakayama et al. (Mutation Research, vol. 281, pp. 77-80, 1992). […] Then, the antioxidative activity of sphingomyelin was determined using reduction in colony forming activity attributed to hydrogen peroxide as an index for toxicity and assessed based on the extent to which the colony forming activity recovered from such reduction by adding sphingomyelin to the cultured cells for test. The cultured cells for test were inoculated onto a plate and precultured (cell adhesion) for 2 hours. […] The cultured cells for test were incubated for 4 hours so that the cells were allowed to take up sphingomyelin, prior to hydrogen peroxide. Next, the cells were reacted for 30 minutes by the addition of hydrogen peroxide and damaged. After reaction, the cells were cultured for 5 days in a medium containing serum. In this context, the concentration of hydrogen peroxide was set to 60 μM at which colony forming activity was decreased to a few % to approximately 40%. […] In this context, higher cell viability indicates the higher antioxidative activity of the added sphingomyelin.

[5] = system: enteropathogenic E. coli O-157; experiment: Test I on prevention of enteropathogenic E. coli O-157 infection; type: in vivo; conditions: BALB/c germ-free mice, 5 mg/day oral
Experimental: Test I on prevention of enteropathogenic E. coli O-157 infection
The intake of sphingomyelin was 5 mg/day. On the 3rd day from the start of taking, the mice were infected with enteropathogenic E. coli O-157 by oral administration at a dose of 8.5×10^6 cfu/mouse. After infection, the mice were also allowed to orally take sphingomyelin on a daily basis. […] The survival rate of the […] depending on the number of days after the administration of enteropathogenic E. coli O-157 is shown in Table 7. As is evident from the results of Table 7, the survival rate of the germ-free mice was enhanced by the administration of sphingomyelin.

[6] = system: enteropathogenic E. coli; conditions: SD rats
[7] = system: enteropathogenic E. coli O-157; experiment: Test II on prevention of enteropathogenic E. coli O-157 infection; type: in vivo; conditions: mice, 8th day after administration of E. coli
Experimental: Sphingomyelin was tested for its effect of preventing enteropathogenic E. coli O-157 infection according to the method described in “Test Example 2” of Japanese Patent Laid-Open No. 2001-2704.
Test II on prevention of enteropathogenic E. coli O-157 infection
The survival rate of mice on the 8th day after the administration of E. coli was measured in the same way as in Test Example 10 except that the intake of sphingomyelin was changed to 0.1 to 10 mg/day.

[8] = system: EAE rats; experiment: Effect of sphingomyelin on EAE rats; type: in vivo, Lewis rats; conditions: for Cumulative score of symptoms: six-grade score 0-5
Experimental: A therapeutic effect on EAE rats serving as models of multiple sclerosis, one of demyelinating diseases, will be shown. The hind footpad of Lewis rats (female, 6 week old) in groups each containing 5 individuals was immunized with a mixture of syngeneic rat brain homogenates with an equal amount of a complete Freund adjuvant (manufactured by Difco) as an antigen for inducing EAE at a dose of 80 mg in terms of the amount of the brain homogenates. Sphingomyelin was intraperitoneally administered at a dose shown in Table 9 for 18 days from the immunization day. The measurement of body weights and the observation of EAE symptoms were performed every day. […] The therapeutic effect was assessed based on the cumulative score of the symptoms in each group. […] Only a saline was administered to the control group.

[9] = 1 mg/kg intraperitoneal for 18 days
[10] = 2 mg/kg intraperitoneal for 18 days

sphingomyelin
Length of time taken to swim to goal ([1]; 1st day): 33 ± 10 s | Length of time taken to swim to goal ([1]; 2nd day): 25 ± 6 s | Length of time taken to swim to goal ([1]; 3rd day): 18 ± 5 s | Length of time taken to swim to goal ([1]; 4th day): 17 ± 6 s | Inhibition rate [2]: 38.9 ± 3.8% | depigmentation / pigmentation grade (Table 12: +3 whitened to −3 evidently blackened) ([3]; application period 1 week): 0.4 | depigmentation / pigmentation grade (Table 12: +3 whitened to −3 evidently blackened) ([3]; application period 2 weeks): 0.8 | depigmentation / pigmentation grade (Table 12: +3 whitened to −3 evidently blackened) ([3]; application period 3 weeks): 1.2 | depigmentation / pigmentation grade (Table 12: +3 whitened to −3 evidently blackened) ([3]; application period 4 weeks): 1.1 | depigmentation / pigmentation grade (Table 12: +3 whitened to −3 evidently blackened) ([3]; application period 5 weeks): 0.9 | depigmentation / pigmentation grade (Table 12: +3 whitened to −3 evidently blackened) ([3]; application period 6 weeks): 0.3 | depigmentation / pigmentation grade (Table 12: +3 whitened to −3 evidently blackened) ([3]; application period 7 weeks): 0 | depigmentation / pigmentation grade (Table 12: +3 whitened to −3 evidently blackened) ([3]; application period 8 weeks): 0 | side effect (pigmentation) on application ([3]; mouse, in vivo): no side effect | own toxicity (colony forming activity) [4]: no reduction in colony forming activity | Survival rate ([5]; 0 days after administration of E. coli): 100% | Survival rate ([5]; 2 days after administration of E. coli): 100% | Survival rate ([5]; 4 days after administration of E. coli): 100% | Survival rate ([5]; 6 days after administration of E. coli): 80% | Survival rate ([5]; 8 days after administration of E. coli): 70% | Incidence of diarrhea ([6]; intake 0.1 mg/day in feed, control 100): 100% | Incidence of diarrhea ([6]; intake 1.0 mg/day in feed): 40% | Incidence of diarrhea ([6]; intake 5.0 mg/day in feed): 30% | Incidence of diarrhea ([6]; intake 10.0 mg/day in feed): 10% | Survival rate ([7]; intake 0.1 mg/day, control 35): 35% | Survival rate ([7]; intake 1.0 mg/day): 65% | Survival rate ([7]; intake 5.0 mg/day): 70% | Survival rate ([7]; intake 10.0 mg/day): 70% | Cumulative score of symptoms with respect to saline-administered control group defined as 100% [8, 9]: 18% | Frequency of onset [8, 9]: 2/5 | The average number of days required for onset [8, 9]: 15.2 | Cumulative score of symptoms [8, 9]: 10 | Cumulative score of symptoms with respect to saline-administered control group defined as 100% [8, 10]: 19% | Frequency of onset [8, 10]: 2/5 | The average number of days required for onset [8, 10]: 14.5 | Cumulative score of symptoms [8, 10]: 11
